Test results reported in US11214803B2, “Modulators of YAP1 expression” (Ionis Pharmaceuticals, Inc., priority 2019, dated 2022).
Marks after values point to notes of the source that are not given here. Strand notation (5' to 3'): a small letter for the sugar, then the base; units joined by * are phosphorothioate-linked, units joined directly phosphodiester-linked; [ ] holds rarer units or linkages, { } end groups; capitals alone tell only the bases. k = constrained ethyl (cEt); [5mC] = 5-methylcytosine; d = 2'-deoxy (DNA)

Tested on: Yap1 mRNA
Assay: Antisense inhibition of human Yap1 in A-431 cells by cEt gapmers, single dose (Example 4, RTS4814)
Type: cell-based
Outline: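 Values are % UTC: Yap1 mRNA by quantitative RT-PCR, normalized to RIBOGREEN total RNA. Cells were exposed ~48 h to 2,000 nM oligonucleotide without transfection. Oligonucleotides were 16-nucleoside gapmers with three cEt nucleosides per wing, ten-deoxy gap, P=S linkages throughout.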

[1] = Table 15, A-431 cells, 5,000 cells per well, free uptake, 2,000 nM, approximately 48 hours, RTS4814, normalized to RIBOGREEN, Yap1 mRNA relative to untreated control, * = targets amplicon region of primer probe set
[2] = Table 16, A-431 cells, 5,000 cells per well, free uptake, 2,000 nM, approximately 48 hours, RTS4814, normalized to RIBOGREEN, Yap1 mRNA relative to untreated control cells
[3] = Yap1 mRNA remaining as percent of untreated control, 3-10-3 cEt gapmers, A-431 cells, Table 36
[4] = Table 17, A-431 cells, 5,000 cells per well, free uptake, 2,000 nM, approximately 48 hours, RTS4814, normalized to RIBOGREEN, Yap1 mRNA relative to untreated control cells
[5] = Yap1 mRNA remaining as percent of untreated control, 3-10-3 cEt gapmers, A-431 cells, Table 37
[6] = Table 14, A-431 cells, 5,000 cells per well, free uptake, 2,000 nM, approximately 48 hours, RTS4814, normalized to RIBOGREEN, Yap1 mRNA relative to untreated control, * = targets amplicon region of primer probe set

1074785 (kA*k[5mC]*k[5mC]*dA*dT*dA*dA*dG*dT*dA*dG*dA*dT*k[5mC]*kT*kA; antisense) [Compound 1074785]
YAP1 (% UTC) [1]: 10 % UTC

1076098 (kT*kT*kA*d[5mC]*dA*dA*dT*dA*dA*dT*dA*dA*dA*k[5mC]*kG*kA; antisense) [Compound 1076098]
YAP1 (% UTC) [2]: 94 % UTC

1074402 (antisense kT*kT*kA*dT*dG*dG*dA*dA*dA*dT*dT*dT*d[5mC]*k[5mC]*kG*kG) [Compound 1074402]
YAP1 (% UTC) [2]: 25 % UTC

1075510 (kG*kA*kA*dT*dA*dA*d[5mC]*dA*d[5mC]*dA*dT*dA*dA*kT*k[5mC]*k[5mC]; antisense) [compound 1075510]
YAP1 (% UTC) [3]: 83 % UTC

1075491 (antisense kG*kA*k[5mC]*dG*dG*dA*dA*dG*dT*dT*dG*d[5mC]*dA*kA*kG*kG) [Compound 1075491]
YAP1 (% UTC) [4]: 93 % UTC

1076387 (kT*kG*kA*d[5mC]*dA*dA*d[5mC]*dA*d[5mC]*dA*dG*dT*dT*kA*kT*kA; antisense) [Compound 1076387]
YAP1 (% UTC) [4]: 13 % UTC

1074721 (antisense kG*kG*kA*dA*dG*dA*dT*d[5mC]*dT*d[5mC]*d[5mC]*dA*dT*kA*kT*kT) [Compound 1074721]
YAP1 (% UTC) [1]: 43 % UTC

1075639 (antisense kA*kA*kT*dT*dA*dA*d[5mC]*d[5mC]*dA*dG*dA*dA*dG*k[5mC]*k[5mC]*kT) [compound 1075639]
YAP1 (% UTC) [5]: 101 % UTC

1075651 (kT*kA*kT*dA*dT*dT*dA*d[5mC]*dA*dA*dT*d[5mC]*d[5mC]*k[5mC]*kA*kG; antisense) [Compound 1075651]
YAP1 (% UTC) [4]: 57 % UTC

1075747 (kA*kT*kT*dT*dA*dG*d[5mC]*dA*dT*dG*dA*dT*dT*kA*kA*k[5mC]; antisense) [Compound 1075747]
YAP1 (% UTC) [4]: 43 % UTC

1074935 (antisense kA*k[5mC]*kA*dG*dG*dA*dG*dA*d[5mC]*dT*dA*dT*dA*k[5mC]*kA*kA) [compound 1074935]
YAP1 (% UTC) [5]: 80 % UTC

1074688 (antisense kT*k[5mC]*k[5mC]*d[5mC]*d[5mC]*d[5mC]*dT*dA*dA*dG*d[5mC]*dT*dA*kA*kA*kG) [Compound 1074688]
YAP1 (% UTC) [6]: 83 % UTC

1075619 (k[5mC]*kT*kT*dA*dG*dA*dT*dA*d[5mC]*dT*dA*d[5mC]*dT*kT*kT*kG; antisense) [Compound 1075619]
YAP1 (% UTC) [4]: 54 % UTC

1074614 (DNA kT*k[5mC]*kA*dT*dA*dG*d[5mC]*dT*dT*dA*dT*dA*dT*kT*kG*kA; antisense) [compound 1074614]
YAP1 (% UTC) [3]: 49 % UTC

1074391 (kG*kT*k[5mC]*dA*dG*dA*dA*d[5mC]*dT*d[5mC]*dA*dA*dA*kG*k[5mC]*kT; antisense) [compound 1074391]
YAP1 (% UTC) [5]: 14 % UTC

1074262 (antisense kG*k[5mC]*k[5mC]*dG*dA*dG*dT*dT*d[5mC]*dA*dT*d[5mC]*dA*kT*kA*kT) [compound 1074262]
YAP1 (% UTC) [3]: 48 % UTC

1075383 (antisense kA*kA*kT*dT*dA*dT*dT*dA*d[5mC]*d[5mC]*d[5mC]*dT*dA*k[5mC]*kT*k[5mC]) [compound 1075383]
YAP1 (% UTC) [5]: 45 % UTC

1074368 (antisense kG*kA*kT*dA*dG*dT*dA*dT*d[5mC]*dA*d[5mC]*d[5mC]*dT*kG*kT*kA) [Compound 1074368]
YAP1 (% UTC) [6]: 8 % UTC

1074176 (antisense k[5mC]*kT*k[5mC]*d[5mC]*d[5mC]*d[5mC]*d[5mC]*dG*dA*d[5mC]*dG*d[5mC]*dG*k[5mC]*kA*k[5mC]) [Compound 1074176]
YAP1 (% UTC) [6]: 84 % UTC

1074551 (DNA kA*kA*kT*dA*dT*d[5mC]*dT*dA*d[5mC]*d[5mC]*dG*dT*dA*kT*kG*k[5mC]; antisense) [compound 1074551]
YAP1 (% UTC) [5]: 58 % UTC

1074210 (antisense kT*k[5mC]*k[5mC]*dG*dG*dA*dG*d[5mC]*d[5mC]*dT*d[5mC]*dA*dT*kG*kG*kG) [Compound 1074210]
YAP1 (% UTC) [2]: 113 % UTC

1075681 (kT*kA*kA*dT*dT*dA*dT*dT*dA*d[5mC]*d[5mC]*d[5mC]*d[5mC]*kT*kT*k[5mC]; antisense) [Compound 1075681]
YAP1 (% UTC) [1]: 37 % UTC

1074658 (antisense kG*kG*k[5mC]*d[5mC]*dA*dT*dT*dT*d[5mC]*d[5mC]*d[5mC]*d[5mC]*d[5mC]*k[5mC]*kA*kG) [Compound 1074658]
YAP1 (% UTC) [2]: 89 % UTC

1076290 (k[5mC]*kT*k[5mC]*d[5mC]*dA*dA*d[5mC]*dG*dG*dA*d[5mC]*dA*dA*k[5mC]*kT*kT; antisense) [Compound 1076290]
YAP1 (% UTC) [2]: 28 % UTC

1074966 (antisense kA*kT*kT*dG*dA*dA*dG*dT*dG*dT*dT*dT*dA*kG*kG*k[5mC]) [compound 1074966]
YAP1 (% UTC) [3]: 9 % UTC

1076288 (k[5mC]*kT*kT*dA*dT*dT*dT*dA*dG*d[5mC]*dA*dT*dA*kG*kT*kG; antisense) [Compound 1076288]
YAP1 (% UTC) [6]: 3 % UTC

1076386 (kA*kG*kT*dT*dA*dT*dA*dA*d[5mC]*dA*dG*dT*dG*kT*kA*kA; antisense) [Compound 1076386]
YAP1 (% UTC) [2]: 7 % UTC

1075072 (antisense kT*k[5mC]*k[5mC]*dG*dG*dG*dT*dA*dA*dA*dT*dA*dT*k[5mC]*kT*k[5mC]) [Compound 1075072]
YAP1 (% UTC) [6]: 37 % UTC

1075062 (antisense k[5mC]*kT*kT*dT*dA*dA*d[5mC]*d[5mC]*dT*dT*dA*dT*dA*k[5mC]*kT*kT) [compound 1075062]
YAP1 (% UTC) [3]: 58 % UTC

1075543 (kA*kT*kA*dT*dA*dT*dT*dA*dG*dG*dA*dG*dT*kT*kT*k[5mC]; antisense) [compound 1075543]
YAP1 (% UTC) [5]: 22 % UTC

1074838 (kA*kT*kA*dA*d[5mC]*dA*dA*d[5mC]*dA*dT*dG*d[5mC]*dT*kT*kG*k[5mC]; antisense) [compound 1074838]
YAP1 (% UTC) [3]: 9 % UTC

1075234 (antisense kG*kT*kA*dA*dA*dT*dA*d[5mC]*dT*d[5mC]*dT*dA*dG*kT*kT*k[5mC]) [Compound 1075234]
YAP1 (% UTC) [2]: 22 % UTC

1076343 (antisense kA*kG*kA*d[5mC]*dT*dA*dA*dA*dT*d[5mC]*dT*dT*d[5mC]*k[5mC]*k[5mC]*kT) [compound 1076343]
YAP1 (% UTC) [5]: 8 % UTC

1075575 (antisense kT*kT*kA*d[5mC]*dA*dA*d[5mC]*dA*d[5mC]*dA*dA*dG*dT*k[5mC]*kT*kA) [compound 1075575]
YAP1 (% UTC) [5]: 55 % UTC

1075488 (antisense k[5mC]*kA*kG*dA*dA*dT*dA*dA*dG*dG*dG*dA*dG*kA*kT*k[5mC]) [Compound 1075488]
YAP1 (% UTC) [6]: 56 % UTC

1074499 (kT*kA*k[5mC]*dA*dA*dT*dA*dA*d[5mC]*d[5mC]*dA*dT*d[5mC]*k[5mC]*k[5mC]*kA; antisense) [Compound 1074499]
YAP1 (% UTC) [4]: 10 % UTC

1074209 (antisense k[5mC]*k[5mC]*kG*dG*dA*dG*d[5mC]*d[5mC]*dT*d[5mC]*dA*dT*dG*kG*kG*k[5mC]) [Compound 1074209]
YAP1 (% UTC) [1]: 72 % UTC

1076566 (kA*kA*kT*dT*dA*d[5mC]*dA*dG*dT*dG*dT*d[5mC]*dT*k[5mC]*kA*k[5mC]; antisense) [compound 1076566]
YAP1 (% UTC) [3]: 63 % UTC

1075830 (kG*kA*kT*dG*dA*dA*d[5mC]*dA*d[5mC]*dT*d[5mC]*dA*dA*kT*kA*kG; antisense) [compound 1075830]
YAP1 (% UTC) [3]: 12 % UTC

1076195 (kA*kA*kT*dA*dA*d[5mC]*dA*dT*dG*dG*dT*dT*d[5mC]*kT*kG*kT; antisense) [Compound 1076195]
YAP1 (% UTC) [4]: 20 % UTC

1075958 (k[5mC]*kA*kT*dT*dA*dT*dG*dA*d[5mC]*dA*dT*dT*d[5mC]*k[5mC]*k[5mC]*k[5mC]; antisense) [compound 1075958]
YAP1 (% UTC) [3]: 12 % UTC

1075670 (antisense kT*kA*kT*dA*dT*dA*dT*dG*dA*dT*dG*dG*dA*k[5mC]*kT*kG) [compound 1075670]
YAP1 (% UTC) [3]: 39 % UTC

1074179 (antisense k[5mC]*kG*kG*dG*dA*dT*d[5mC]*d[5mC]*dA*dT*dG*dG*d[5mC]*kT*kT*k[5mC]) [Compound 1074179]
YAP1 (% UTC) [4]: 49 % UTC

1074711 (antisense kA*k[5mC]*kT*d[5mC]*dT*dA*dG*dA*dA*d[5mC]*dA*dG*d[5mC]*kT*kG*k[5mC]) [compound 1074711]
YAP1 (% UTC) [5]: 28 % UTC

1074306 (antisense k[5mC]*k[5mC]*kT*d[5mC]*dA*d[5mC]*d[5mC]*dT*dG*d[5mC]*d[5mC]*dG*dA*kA*kG*k[5mC]) [Compound 1074306]
YAP1 (% UTC) [2]: 107 % UTC

1074659 (antisense k[5mC]*kT*kA*dA*dA*dA*d[5mC]*dT*d[5mC]*d[5mC]*dA*dT*d[5mC]*kT*kG*k[5mC]) [Compound 1074659]
YAP1 (% UTC) [4]: 12 % UTC

1074211 (antisense k[5mC]*kT*kT*d[5mC]*d[5mC]*dG*dG*dA*dG*d[5mC]*d[5mC]*dT*d[5mC]*kA*kT*kG) [Compound 1074211]
YAP1 (% UTC) [4]: 67 % UTC

1074435 (kG*kA*k[5mC]*dT*dT*d[5mC]*dT*dA*dA*dG*dT*d[5mC]*dT*kG*kA*kG; antisense) [Compound 1074435]
YAP1 (% UTC) [4]: 19* % UTC

1075862 (antisense k[5mC]*kT*kA*dA*dT*dA*dA*d[5mC]*dT*dT*dG*dT*d[5mC]*kT*kA*k[5mC]) [compound 1075862]
YAP1 (% UTC) [3]: 67 % UTC
